Laboratory results from patent US9572817B2, “Use of androgens for vascular regeneration and endothelial repair” (THE HEART RESEARCH INSTITUTE LTD., priority 2008, dated 2017).
Where two headings read alike, the source gives them in different places.

Key:
[1] = test system: Human Umbilical Endothelial Cells (HUVEC); experiment: EC migration (scratch assay and boyden chamber assay); type: cell-based
Experimental: (§1) The effect of the non-aromatizable androgen dihydrotestosterone was assessed on three key angiogenic processes: endothelial cell (EC) migration, EC proliferation and EC tubulogenesis. Cells were treated with 0, 4, 40 or 400 nM dihydrotestosterone (DHT, a potent androgen) with and without the androgen-receptor antagonist hydroxyflutamide (HF).
EC migration was assessed via a scratch assay and boyden chamber assay. Human Umbilical Endothelial Cells (HUVEC) monolayers were grown in the presence of varying doses of DHT±Hydroxyflutamide (HF), and either scratched or placed on top of permeable membranes. EC migration across the culture surface or through the membranes was assessed at 24 h and 6 h respectively via light and fluorescence microscopy respectively.

Male C57B16/J mice [2] = settings: castrate+DHT male mice, after 7 days; control 0.39±0.03
Excerpt: (§2) Male C57B16/J mice were either castrated or sham-castrated after reaching sexual maturity (6 weeks). After a period of 10 days, 50% of both castrated and sham-castrated mice received a 1 cm subcutaneous silastic implant containing DHT.

HUVECs [3] = experiment: EC proliferation (direct counting of cell numbers and MTS Assay); type: cell-based, Human
Experimental: as §1
EC proliferation was assessed using two methods: direct counting of cell numbers and the MTS Assay. HUVECs were seeded at a density of 1×10^4 cells/ml (12 well plates for counting, 96 well plates for MTS assay) in endothelial growth media in the presence of varying doses DHT±Hydroxyflutamide (HF). After 48 h, cells were either harvested from 12 well plates and counted or incubated with MTS reagent in the 96 well plates with absorbance measured subsequently at 490 nm measured.

HUVECs [4] = experiment: EC tubulogenesis (co-culture assay of fibroblasts and ECs); type: cell-based, Human; settings: for EC tubulogenesis vs. 100% control value: donor cells; for tubule formation vs. 100% control value: male EC, chronic exposure (72 h)
Experimental: The effect of the non-aromatizable androgen dihydrotestosterone was assessed on three key angiogenic processes: endothelial cell (EC) migration, EC proliferation and EC tubulogenesis.
Co-cultures were grown in the presence of DHT±Hydroxyflutamide (HF). After 72 h, co-cultures were assessed using immunohistochemistry for EC specific markers and image analysis software.

Male C57B16/J mice [5] = settings: castrate+DHT
Excerpt: as §2
Mononuclear cells were harvested from the spleens and bone marrow of all animals and assessed via cell culture and flow cytometry. Cells were and stained with fluorescein isothiocyanate-lectin and/or 1,1(-dioctadecyl-3,3,3(,3(-tetramethylindocarbocyanine (DiI)-labelled, acetylated low-density lipoprotein (Vasa M, et al. Number and migratory activity of circulating endothelial progenitor cells inversely correlate with risk factors for coronary artery disease. Circ Res. 2001; 89:e1-e7).

[6] = intramuscular injection; cited from earlier work

## C[C@]12CCC(=O)C[C@@H]1CC[C@@H]1[C@@H]2CC[C@]2(C)[C@@H](O)CC[C@@H]12 [DHT, 5α-dihydrotestosterone]
[1]; donor cells, DHT 4 nM
  EC migration vs. 100% control value: 90±5%
[1]; donor cells, DHT 40 nM
  EC migration vs. 100% control value: 96±5%
[1]; donor cells, DHT 400 nM
  EC migration vs. 100% control value: 93±8%
[1]; male EC, DHT 4 nM, after 24 h
  EC migration vs. 100% control value: 138±7%
[1]; male EC, DHT 40 nM, after 24 h
  EC migration vs. 100% control value: 280±23%
[1]; male EC, DHT 400 nM, after 24 h
  EC migration vs. 100% control value: 306±32%
Male C57B16/J mice [2]
  Laser Doppler Perfusion Index (LDPI) ischemic/non-ischemic ratio: 0.6±0.06
HUVECs [3]; donor cells, DHT 4 nM
  EC proliferation vs. 100% control value: 92±5%
HUVECs [3]; donor cells, DHT 40 nM
  EC proliferation vs. 100% control value: 92±3%
HUVECs [3]; donor cells, DHT 400 nM
  EC proliferation vs. 100% control value: 89±6%
HUVECs [3]; male EC, DHT 4 nM, after 48 h
  EC proliferation vs. 100% control value: 112±8%
HUVECs [3]; male EC, DHT 40 nM, after 48 h
  EC proliferation vs. 100% control value: 118±5%
HUVECs [3]; male EC, DHT 400 nM, after 48 h
  EC proliferation vs. 100% control value: 127±4%
HUVECs [4]; DHT 4 nM
  EC tubulogenesis vs. 100% control value: 92±3%
  tubule formation vs. 100% control value: 115±7%
HUVECs [4]; DHT 40 nM
  EC tubulogenesis vs. 100% control value: 90±3%
  tubule formation vs. 100% control value: 137±5%
HUVECs [4]; DHT 400 nM
  EC tubulogenesis vs. 100% control value: 92±3%
  tubule formation vs. 100% control value: 157±6%
Male C57B16/J mice [5]; absence of ischaemia, control 15.4±1, castrated 10.3±0.9
  spleen angiogenic cells: 10±0.9 Angiogenic cells/×200 field
Male C57B16/J mice [5]; presence of ischaemia, control 22±1.7, castrated 16±0.8
  spleen angiogenic cells: 26±1.3 Angiogenic cells/×200 field
Male C57B16/J mice [5]; presence of ischaemia, control 60±2.4, castrate 26±1.7
  bone marrow angiogenic cells: 36±3 Angiogenic cells/×200 field

## CCCCCCC(=O)O[C@H]1CC[C@H]2[C@@H]3CCC4=CC(=O)CC[C@]4(C)[C@H]3CC[C@]12C [Testosterone enanthate]
[6]
  time to peak serum testosterone levels after administration: 24 h
